Tests used:
[1] = pH of suspensions of grain samples in distilled water or PBS; conditions: 1% (w/w) in distilled water
Protocol: The untreated sample (A) was compared visually against the corresponding quicklime-treated sample (B).
On Day 7, 10 g amounts of each sample were suspended in either 90 ml PBS or 90 ml sterile distilled water and shaken for 10 minutes. The pH of each suspension was then measured and compared.
On Day 9, 10 g of each sample was suspended in 90 ml PBS and shaken for 10 minutes. The pH was measured.

yeast = test: Yeast count of spent brewer's / wet distiller's grains stored at ambient temperature; type: cell-based
total micro-organism = test: Total microbial (plate) count of spent brewer's / wet distiller's grains stored at ambient temperature; type: cell-based; parameters: total microbial count: unit: cfu/gram; conditions: for preservation effect period: Example 18; for total microbial count: powder 10% (w/w)
In short: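 Spent brewer's grains taken from a brewery discharge line were mixed at the laboratory and treated with powdered commercial calcium oxide containing approximately 94% CaO. Each batch was kept under insect-proof screens at ambient temperature, with no further treatment or agitation. Samples were drawn every seven days, and the entire sample was sent to a microbiological testing facility for total microbial counts.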

[2] = 10% Ca-DGO (w/w) granules, week 1
[3] = 10% Ca-DGO (w/w) granules, week 2
[4] = 10% Ca-DGO (w/w) granules, week 3
[5] = 10% Ca-DGO (w/w) granules, week 4
[6] = 10% Ca-DGO (w/w) granules, week 5
[7] = 10% Ca-DGO (w/w) powder, week 1
[8] = 10% Ca-DGO (w/w) powder, week 2
[9] = 10% Ca-DGO (w/w) powder, week 3
[10] = 10% Ca-DGO (w/w) powder, week 4
[11] = 10% Ca-DGO (w/w) powder, week 5
[12] = 20% Ca-DGO (w/w) powder, week 1
[13] = 20% Ca-DGO (w/w) powder, week 2
[14] = 20% Ca-DGO (w/w) powder, week 3
[15] = 20% Ca-DGO (w/w) powder, week 4
[16] = 20% Ca-DGO (w/w) powder, week 5
[17] = 40% Ca-DGO (w/w) powder, week 1
[18] = 40% Ca-DGO (w/w) powder, week 2
[19] = 40% Ca-DGO (w/w) powder, week 3
[20] = 40% Ca-DGO (w/w) powder, week 4
[21] = 40% Ca-DGO (w/w) powder, week 5

## [Ca+2].[O-]CC(O)CO.[O-]CC(O)CO [calcium diglyceroxide]
[1]; [2]
  pH: 7.88
[1]; [3]
  pH: 7.71
[1]; [4]
  pH: 7.44
[1]; [5]
  pH: 7.14
[1]; [6]
  pH: 8.37
[1]; [7]
  pH: 9.43
[1]; [8]
  pH: 7.32
[1]; [9]
  pH: 7.31
[1]; [10]
  pH: 8.01
[1]; [11]
  pH: 7.23
[1]; [12]
  pH: 11.47
[1]; [13]
  pH: 11.16
[1]; [14]
  pH: 12.00
[1]; [15]
  pH: 11.23
[1]; [16]
  pH: 10.83
[1]; [17]
  pH: 11.66
[1]; [18]
  pH: 11.50
[1]; [19]
  pH: 12.30
[1]; [20]
  pH: 11.52
[1]; [21]
  pH: 11.13
yeast; [2]
  Yeast Count: 480 cfu/gram
yeast; [3]
  Yeast Count: <10 cfu/gram
yeast; [4]
  Yeast Count: <10 cfu/gram
yeast; [5]
  Yeast Count: <19 cfu/gram
yeast; [6]
  Yeast Count: <10 cfu/gram
yeast; [7]
  Yeast Count: <10 cfu/gram
yeast; [8]
  Yeast Count: <10 cfu/gram
yeast; [9]
  Yeast Count: <10 cfu/gram
yeast; [10]
  Yeast Count: <10 cfu/gram
yeast; [11]
  Yeast Count: <10 cfu/gram
yeast; [12]
  Yeast Count: 10 cfu/gram
yeast; [13]
  Yeast Count: 10 cfu/gram
yeast; [14]
  Yeast Count: 10 cfu/gram
yeast; [15]
  Yeast Count: 10 cfu/gram
yeast; [16]
  Yeast Count: 10 cfu/gram
yeast; [17]
  Yeast Count: 10 cfu/gram
yeast; [18]
  Yeast Count: 10 cfu/gram
yeast; [19]
  Yeast Count: 20 cfu/gram
yeast; [20]
  Yeast Count: 10 cfu/gram
yeast; [21]
  Yeast Count: 10 cfu/gram
Total micro-organism; [2]
  Total plate count: 11000 cfu/gram
Total micro-organism; [3]
  Total plate count: <10 cfu/gram
Total micro-organism; [4]
  Total plate count: 540 cfu/gram
Total micro-organism; [5]
  Total plate count: 60 cfu/gram
Total micro-organism; [6]
  Total plate count: 650 cfu/gram
Total micro-organism; [7]
  Total plate count: 610 cfu/gram
Total micro-organism; [8]
  Total plate count: <10 cfu/gram
Total micro-organism; [9]
  Total plate count: 580 cfu/gram
Total micro-organism; [10]
  Total plate count: 5000 cfu/gram
Total micro-organism; [11]
  Total plate count: 36000 cfu/gram
Total micro-organism; [12]
  Total plate count: 80 cfu/gram
Total micro-organism; [13]
  Total plate count: 310 cfu/gram
Total micro-organism; [14]
  Total plate count: 140 cfu/gram
Total micro-organism; [15]
  Total plate count: 40 cfu/gram
Total micro-organism; [16]
  Total plate count: 10 cfu/gram
Total micro-organism; [17]
  Total plate count: 40 cfu/gram
Total micro-organism; [18]
  Total plate count: 450 cfu/gram
Total micro-organism; [19]
  Total plate count: 103 cfu/gram
Total micro-organism; [20]
  Total plate count: 10 cfu/gram
Total micro-organism; [21]
  Total plate count: 10 cfu/gram
Total micro-organism; granule form 15% (w/w)
  preservation effect period: 9 week
Total micro-organism; 3 week time point
  total microbial count: 580
Total micro-organism; week 4
  total microbial count: 5,000
Total micro-organism; week 5
  total microbial count: 36,000
Total micro-organism; powder form 15% (w/w)
  preservation effect period: 9 week

— patent US20120009280A1, “METHOD OF REDUCING THE RATE OF DEGRADATION OF A BIOLOGICAL MATERIAL” (Bio-Energy Ingredients Limited, priority 2009, published 2012)
